The test addresses T1, SIRT1 (Homo sapiens, UniProt Q96EB6).
T1 sequence (Q96EB6 1-747): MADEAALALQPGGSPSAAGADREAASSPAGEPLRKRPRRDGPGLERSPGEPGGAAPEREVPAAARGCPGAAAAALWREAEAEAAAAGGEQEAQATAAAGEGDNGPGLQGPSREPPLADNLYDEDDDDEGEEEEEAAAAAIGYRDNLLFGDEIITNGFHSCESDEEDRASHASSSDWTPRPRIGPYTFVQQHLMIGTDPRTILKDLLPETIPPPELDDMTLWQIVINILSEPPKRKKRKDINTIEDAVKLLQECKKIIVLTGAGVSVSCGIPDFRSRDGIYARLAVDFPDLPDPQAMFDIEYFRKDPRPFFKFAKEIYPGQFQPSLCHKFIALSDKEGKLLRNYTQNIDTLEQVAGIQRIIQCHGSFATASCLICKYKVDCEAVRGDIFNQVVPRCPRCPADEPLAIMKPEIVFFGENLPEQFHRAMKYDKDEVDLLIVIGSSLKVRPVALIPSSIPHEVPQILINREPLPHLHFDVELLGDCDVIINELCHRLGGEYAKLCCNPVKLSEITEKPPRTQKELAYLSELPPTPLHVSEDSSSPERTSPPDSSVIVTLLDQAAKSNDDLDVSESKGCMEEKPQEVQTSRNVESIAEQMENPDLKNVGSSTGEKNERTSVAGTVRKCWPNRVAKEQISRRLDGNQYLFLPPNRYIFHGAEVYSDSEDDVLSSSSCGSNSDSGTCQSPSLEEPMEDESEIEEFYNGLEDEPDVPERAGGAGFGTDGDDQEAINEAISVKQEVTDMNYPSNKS
The test is described as follows: TAMRA based mass spectrometry assay of SIRT1 activation. It is filed as biochemical. The following applies: TAMRA peptide substrate; for Emax: 25 min, percent maximum fold activation relative to control (100%), read-out: TAMRA % Fold Act; for TAMRA EC1.5 (μM): concentration giving 150% activation of SIRT1. The source says: Mass spectrometry based assays were used to identify modulators of SIRT1 activity. The TAMRA based assay utilized a peptide having 20 amino acid residues as follows: Ac-EE-K(biotin)-GQSTSSHSK(Ac)NleSTEG-K(5TMR)-EE-NH2 (SEQ ID NO: 1), wherein K(Ac) is an acetylated lysine residue and Nle is a norleucine. The peptide was labeled with the fluorophore 5TMR (excitation 540 nm/emission 580 nm) at the C-terminus. The sequence of the peptide substrate was based on p53 with several modifications. In addition, the methionine residue naturally present in the sequence was replaced with the norleucine because the methionine may be susceptible to oxidation during synthesis and purification. The Trp based assay utilized a peptide having an amino acid residues as follows: Ac—R—H—K—K(Ac)—W—NH2 (SEQ ID NO: 2).
The TAMRA based mass spectrometry assay was conducted as follows: 0.5 μM peptide substrate and 120 μM βNAD^+ was incubated with 10 nM SIRT1 for 25 minutes at 25° C. in a reaction buffer (50 mM Tris-acetate pH 8, 137 mM NaCl, 2.7 mM KCl, 1 mM MgCl2, 5 mM DTT, 0.05% BSA). The SIRT1 protein was obtained by cloning the SirT1 gene into a T7-promoter containing vector, which was then transformed and expressed in BL21(DE3) bacterial cells. Test compound was added at varying concentrations to this reaction mixture and the resulting reactions were monitored. After the 25 minute incubation with SIRT1, 10 μL of 10% formic acid was added to stop the reaction. The resulting reactions were sealed and frozen for later mass spec analysis. Determination of the amount of deacetylated substrate peptide formed (or, alternatively, the amount of O-acetyl-ADP-ribose (OAADPR) generated) by the sirtuin-mediated NAD-dependent deacetylation reaction allowed for the precise measurement of relative SIRT1 activity in the presence of varying concentrations of the test compound versus control reactions lacking the test compound.
A control for inhibition of sirtuin activity was conducted by adding 1 μL of 500 mM nicotinamide as a negative control at the start of the reaction (e.g., permits determination of maximum sirtuin inhibition). A control for activation of sirtuin activity was conducted using 10 nM of sirtuin protein, with 1 μL of DMSO in place of compound, to determine the amount of deacetylation of the substrate at a given time point within the linear range of the assay. This time point was the same as that used for test compounds and, within the linear range, the endpoint represents a change in velocity. For the above assay, SIRT1 protein was expressed and purified as follows. The SirT1 gene was cloned into a T7-promoter containing vector and transformed into BL21(DE3). The protein was expressed by induction with 1 mM IPTG as an N-terminal His-tag fusion protein at 18° C. overnight and harvested at 30,000×g. Cells were lysed with lysozyme in lysis buffer (50 mM Tris-HCl, 2 mM Tris[2-carboxyethyl]phosphine (TCEP), 10 μM ZnCl2, 200 mM NaCl) and further treated with sonication for 10 min for complete lysis. The protein was purified over a Ni-NTA column (Amersham) and fractions containing pure protein were pooled, concentrated and run over a sizing column (Sephadex S200 26/60 global). The peak containing soluble protein was collected and run on an Ion-exchange column (MonoQ). Gradient elution (200 mM-500 mM NaCl) yielded pure protein. This protein was concentrated and dialyzed against dialysis buffer (20 mM Tris-HCl, 2 mM TCEP) overnight. The protein was aliquoted and frozen at −80° C. until further use.
Sirtuin-modulating compounds of Formula (I) that activated SIRT1 were identified using the assay described above and are shown below in Table 1. The EC1.5 values represent the concentration of test compounds that result in 150% activation of SIRT1. The EC1.5 values for the activating compounds of Formula (I) are represented by A (EC1.5<1 μM), B (EC1.5 1-25 μM), C (EC1.5>25 μM). […]

As to `O=C(Nc1ccccn1)c1ccc2nnc(-c3cccc(OC(F)(F)F)c3)n2n1` [Compound 2], the Emax is below 350% and the “TAMRA EC1.5 (μM)” value is given as “C (EC1.5>25 μM)”.

Consider `O=C(Nc1ccccn1)c1ccc2nnc(-c3cccc(C(F)(F)F)c3)n2n1` [Compound 3], for which the “TAMRA EC1.5 (μM)” value is recorded as “C (EC1.5>25 μM)”.

On to `O=C(Nc1cccc(C(F)(F)F)n1)c1ccc2nnc(-c3cccc(F)c3)n2n1` [Compound 7], for which the Emax was below 350%.

Regarding `O=C(Nc1cccc(C(F)(F)F)n1)c1ccc2ncc(-c3ccccc3F)n2n1` [Compound 9], the Emax was below 350% and the “TAMRA EC1.5 (μM)” value was “B (EC1.5 1-25 μM)”.

Turning to `O=C(Nc1ccc(F)cn1)c1ccc2ncc(-c3cccc(C(F)(F)F)c3)n2n1` [Compound 11], the Emax was below 350% and the “TAMRA EC1.5 (μM)” value is given as “B (EC1.5 1-25 μM)”.

For the molecule `O=C(Nc1ccnc(C(F)(F)F)c1)c1ccc2ncc(-c3ccccc3F)n2n1` [Compound 12], the Emax is below 350% and the “TAMRA EC1.5 (μM)” value was “B (EC1.5 1-25 μM)”.

On to `O=C(Nc1ccc2ncc(-c3ccccc3F)n2n1)c1cnccn1` [Compound 13], for which the Emax is below 350% and the “TAMRA EC1.5 (μM)” value is reported as “C (EC1.5>25 μM)”.

In the case of `O=C(Nc1ccc2ncc(-c3cccc(F)c3)n2n1)c1nccs1` [Compound 17], the Emax is below 350% and the “TAMRA EC1.5 (μM)” value was “B (EC1.5 1-25 μM)”.

As for `O=C(Nc1ccc2ncc(-c3cccc(F)c3)n2n1)c1cnccn1` [Compound 20], the Emax is below 350% and the “TAMRA EC1.5 (μM)” value is on record as “B (EC1.5 1-25 μM)”.

Take `O=C(Nc1ccc2ncc(-c3ccccc3Cl)n2n1)c1nccs1` [Compound 24]: the Emax was below 350% and the “TAMRA EC1.5 (μM)” value was “B (EC1.5 1-25 μM)”.

Take `O=C(Nc1ccc2ncc(-c3ccccc3F)n2n1)c1ncccn1` [Compound 25]: the Emax is below 350% and the “TAMRA EC1.5 (μM)” value is recorded as “B (EC1.5 1-25 μM)”.

In the case of `O=C(Nc1ccc2ncc(-c3cccc(Cl)c3)n2n1)c1nccs1` [Compound 27], the Emax is below 350% and the “TAMRA EC1.5 (μM)” value was “B (EC1.5 1-25 μM)”.

For `O=C(Nc1ccc2ncc(-c3cccc(F)c3)n2n1)c1ccccn1` [Compound 28], the Emax was below 350% and the “TAMRA EC1.5 (μM)” value was “B (EC1.5 1-25 μM)”.

Take `O=C(Nc1ccnc(C(F)(F)F)c1)c1ccc2ncc(-c3ccccc3Cl)n2n1` [Compound 29]: the Emax was below 350% and the “TAMRA EC1.5 (μM)” value is recorded as “B (EC1.5 1-25 μM)”.

`O=C(Nc1ccc2ncc(-c3cccc(Cl)c3)n2n1)c1ccccn1` [Compound 30]: the Emax is below 350% and the “TAMRA EC1.5 (μM)” value is “B (EC1.5 1-25 μM)”.

For the molecule `O=C(Nc1ccc2ncc(-c3cccc(C(F)(F)F)c3)n2n1)c1ccccn1` [Compound 31], the Emax is below 350% and the “TAMRA EC1.5 (μM)” value is “B (EC1.5 1-25 μM)”.

In the case of `O=C(Nc1cccc(N2CCOCC2)n1)c1ccc2ncc(-c3ccccc3F)n2n1` [Compound 32], the Emax was below 350% and the “TAMRA EC1.5 (μM)” value is “C (EC1.5>25 μM)”.

`O=C(Nc1ccc2ncc(-c3ccccc3Cl)n2n1)c1ncccn1` [Compound 33]: the Emax is at least 350% and the “TAMRA EC1.5 (μM)” value is “A (EC1.5<1 μM)”.

For `O=C(Nc1ccc2ncc(-c3cccc(Cl)c3)n2n1)c1cnccn1` [Compound 34], the Emax was below 350% and the “TAMRA EC1.5 (μM)” value was “A (EC1.5<1 μM)”.

For `Cn1ccc(C(=O)Nc2ccc3ncc(-c4cccc(Cl)c4)n3n2)n1` [Compound 35], the Emax is below 350% and the “TAMRA EC1.5 (μM)” value is reported as “A (EC1.5<1 μM)”.

For `Cn1ccc(C(=O)Nc2ccc3ncc(-c4ccccc4F)n3n2)n1` [Compound 36], the Emax was below 350% and the “TAMRA EC1.5 (μM)” value was “A (EC1.5<1 μM)”.

For `O=C(Nc1ccc2ncc(-c3cccc(Cl)c3)n2n1)c1ncccn1` [Compound 37], the Emax was below 350% and the “TAMRA EC1.5 (μM)” value is on record as “B (EC1.5 1-25 μM)”.

Take `Cn1ccc(C(=O)Nc2ccc3ncc(-c4cccc(C(F)(F)F)c4)n3n2)n1` [Compound 40]: the Emax was below 350% and the “TAMRA EC1.5 (μM)” value is recorded as “C (EC1.5>25 μM)”.

Take `O=C(Nc1ccc2ncc(-c3ccccc3Cl)n2n1)c1ccccn1` [Compound 41]: the Emax is below 350% and the “TAMRA EC1.5 (μM)” value is recorded as “C (EC1.5>25 μM)”.

For `CS(=O)(=O)c1cccc(-c2nnc3ccc(C(=O)Nc4nccs4)nn23)c1` [Compound 42], the Emax is below 350% and the “TAMRA EC1.5 (μM)” value is listed as “C (EC1.5>25 μM)”.

Turning to `Cn1ccc(C(=O)Nc2ccc3ncc(-c4cccc(F)c4)n3n2)n1` [Compound 43], the Emax is below 350% and the “TAMRA EC1.5 (μM)” value was “C (EC1.5>25 μM)”.

Consider `Cn1ccc(C(=O)Nc2ccc3ncc(-c4ccccc4Cl)n3n2)n1` [Compound 45], for which the Emax was below 350% and the “TAMRA EC1.5 (μM)” value is recorded as “C (EC1.5>25 μM)”.

Regarding `O=C(Nc1cccc(N2CCOCC2)n1)c1ccc2ncc(-c3cccc(Cl)c3)n2n1` [Compound 46], the Emax is below 350% and the “TAMRA EC1.5 (μM)” value is given as “B (EC1.5 1-25 μM)”.

Turning to `O=C(Nc1ccnc(C2CCOCC2)c1)c1ccc2ncc(-c3cccc(C(F)(F)F)c3)n2n1` [Compound 47], the Emax was at least 350% and the “TAMRA EC1.5 (μM)” value is reported as “A (EC1.5<1 μM)”.

For the molecule `O=C(Nc1nccs1)c1ccc2nnc(-c3cccc(C(F)(F)F)c3)n2n1` [Compound 49], the Emax was below 350% and the “TAMRA EC1.5 (μM)” value is reported as “C (EC1.5>25 μM)”.

With `O=C(Nc1ccnc(C(F)(F)F)c1)c1ccc2ncc(-c3cccc(F)c3)n2n1` [Compound 50], the Emax is below 350% and the “TAMRA EC1.5 (μM)” value is “C (EC1.5>25 μM)”.

For the origin of these results see patent US20140249147A1, “Substituted Bicyclic Aza-Heterocycles and Analogues as Sirtuin Modulators” (GlaxoSmithKline, LLC, priority 2011, published 2014).
